Data as given in patent US7732160B2, “Methamphetamine derivatives and conjugates for immunoassay” (Roche Diagnostics Operations, Inc., priority 2004, dated 2010).

Assays:
[1] = tested on: monoclonal antibody specific for methamphetamine; test: Microparticle agglutination immunoassay with conjugate (12) and methamphetamine antibody-coated particles, percent cross-reactivity; assay type: binding; conditions: methamphetamine antibody with conjugate (12)
[2] = tested on: monoclonal antibody NEAMP 48.2; test: Microparticle agglutination immunoassay with conjugate (12) and N-ethylamphetamine antibody-coated particles, percent cross-reactivity; assay type: binding; conditions: NEAMP 48.2 antibody with conjugate (12)
Method: The conjugate reagent was prepared as described in Example 16.
An antibody-coated microparticle was prepared as described in Example 16 using monoclonal antibody NEAMP 48.2 described in U.S. 2004/0077021. A microparticle reagent was then prepared as described in Example 16.
The assay was carried out on a Roche/Hitachi 917 analyzer as described in Example 16.
Percent cross-reactivity was determined in an ammunoassay. A standard curve was established using known amounts of the target analyte methylenedioxyethylamphetamine (MDEA). Known amounts of various amphetamine-related drugs were to be analyzed as samples in the immunoassay, and apparent concentrations of these drugs were generated from the standard curve. Apparent concentration of the drug, divided by actual concentration and multiplied by 100, is the percent cross-reactivity of this drug.

With `CCC(Cc1ccc2c(c1)OCO2)NC` (centres unmarked) [MBDB, 3,4-methylenedioxyphenyl-N-methylbutanamine] the “Cross-reactivity” value [1] was “good cross-reactivity”.

For `CCNC(C)Cc1ccc2c(c1)OCO2` (centres unmarked) [MDEA, 3,4-methylenedioxy-N-ethylamphetamine], the “Cross-reactivity” value [2] was “good cross-reactivity”.

In the case of `CNC(C)Cc1ccc2c(c1)OCO2` (centres unmarked) [MDMA, 3,4-methylenedioxy-N-methylamphetamine], the “Cross-reactivity” value [1] is reported as “good cross-reactivity”.

`CC(C)(N)Cc1ccccc1` [Phentermine] was tested, and the “Cross-reactivity” value [2] was “essentially none”.

In the case of `NCCc1ccc(O)cc1` [Tyramine], the “Cross-reactivity” value [2] is reported as “essentially none”.

`CN[C@@H](C)Cc1ccccc1` [d-Methamphetamine] was tested, and the “Cross-reactivity” value [1] was “good cross-reactivity”.

For `CN[C@@H](C)[C@@H](O)c1ccccc1` [d-pseudoephedrine], the “Cross-reactivity” value [2] was “essentially none”.

For `CN[C@@H](C)[C@H](O)c1ccccc1` [l-ephedrine], the “Cross-reactivity” value [2] was “essentially none”.
